Consider three compounds from patent publication US20250340549A1, “BICYCLIC HETEROAROMATIC INHIBITORS OF NICOTINAMIDE N-[…], AND COMPOSITIONS AND USES THEREOF” (President and Fellows of Harvard College, priority 2021, published 2025).

For one series, the target named is T1, recombinant human NNMT (Homo sapiens, UniProt P40261).
T1 sequence (P40261 1-264): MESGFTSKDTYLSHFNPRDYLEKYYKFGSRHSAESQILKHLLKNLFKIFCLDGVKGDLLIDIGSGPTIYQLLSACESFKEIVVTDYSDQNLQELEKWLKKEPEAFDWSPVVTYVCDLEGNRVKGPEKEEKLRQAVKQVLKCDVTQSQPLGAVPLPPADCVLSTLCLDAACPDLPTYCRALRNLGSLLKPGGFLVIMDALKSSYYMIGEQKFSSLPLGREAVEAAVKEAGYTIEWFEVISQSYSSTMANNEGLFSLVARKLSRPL
The series can be described thus: In vitro NNMT enzyme inhibition assay (Promega MTase-Glo Methyltransferase Assay). Conditions: compared with compound 1. The class given is biochemical. As for the experimental part:
NNMT biochemical activity for was evaluated for compound 1 (FIG. 1), compound 2 (FIG. 2), compound 6 (FIG. 3), compound 8 (FIG. 4), compound 14 (FIG. 5), compound 16 (FIG. 6), and compound 13 (FIG. 12), using the Promega Mtase-Glo Methyltransferase Assay kit. Compounsd 4A (FIG. 7) and 4B (FIG. 8) were also tested in the assay.
Assays were performed in a white, flat-bottomed 96 well plate. […] Reactions were performed for 20 minutes at room temperature. MTase-Glo reagent and MTase-Glo detection solution were added according to manufacturer's instructions and luminescence signal measured with a SpectraMax i3 plate reader and data analyzed with GraphPad Prism version 9. Scheme 10 depicts a visual summary of the Promega MTase-Glo Methyltransferase assay used to assess biochemical activity of novel inhibitors.

The nature of a further series: in vitro. The procedure: A master solution was prepared according to the following table.
40 μL of 10 mM NADPH solution was added to each well. The final concentrations of NADPH was 1 mM. The mixture was pre-warmed at 37° C. for 5 minutes. The negative control samples were prepared by replacing NADPH solutions with 40 μL of ultra-pure H2O. The negative control was used to exclude the misleading factor that resulted from instability of chemical itself. Samples with NADPH were prepared in duplicate. Negative controls were prepared in singlet.
The reaction was started with the addition of 4 μL of 200 uM control compound or test compound solutions. […] The reaction was stopped by the addition of 4 volumes of cold acetonitrile with IS (100 nM alprazolam, 200 nM imipramine, 200 nM labetalol and 2 uM ketoprofen). Samples were centrifuged at 3, 220 g for 40 minutes. Aliquot of 90 μL of the supernatant was mixed with 90 μL of ultra-pure H2O and then used for LC-MS/MS analysis.
For metabolite standard samples: 1 μL of 400 uM working solution was added to 89 μL master solution following by adding 400 μL of cold acetonitrile with internal standard (IS) (100 nM alprazolam, 200 nM Imipramine, 200 nM labetalol and 2 uM ketoprofen). Then 10 μL of 10 mM NADPH solution or ultra-pure H2O was added to the mixture. Samples were centrifuged at 3,220 g for 40 minutes to precipitate protein. Aliquots of 90 μL supernatant diluted by 90 μL of water was used for LC-MS/MS analysis.

Series [1] in a line: Mouse PK study (IV and PO) in female C57B16/N. The class given is in vivo. The conditions noted are these: for Tmax: iv. As for the experimental part:
Doses were freshly prepared on the day of dosing. Vehicle compositions of each dose are listed below. For IV, an appropriate amount of the test article was dissolved in the vehicle with vortexing and/or sonication to achieve a solution with the intended concentration level. For PO, an appropriate amount of the test article was dissolved in the appropriate vehicle; vortex and/or sonication can be used to achieve a solution formulation with the intended concentration level. • IV: 0.5% Tween 80 in saline • PO: 0.2% Tween 80/10% PEG-300 in water. Adjust pH with IN hydrochloric acid to obtain a clear solution
(§1) After dosing, 0.03 mL blood samples were collected from the dorsal metatarsal vein (0.2 mL at final time point via heart puncture) at the following time points: • IV: pre-dose, 0.0833, 0.25, 0.5, 1, 2, 4, 6, 8, 24 hours post dose • PO: pre-dose, 0.25, 0.5, 1, 2, 4, 6, 8, 24 hours post dose
(§2) Blood from each sample was transferred into plastic micro centrifuge tubes with EDTAK2 as an anticoagulant. The blood samples were centrifuged at 4,000 g for 5 minutes at 4° C. to obtain plasma. Samples were immediately frozen in the upright position and stored at −75±15° C. prior to analysis.
Samples were analyzed on a AB Sciex Triple Quad 5500 LC/MS/MS instrument using a Gemini 5 μm C18 110A 150×3 mm column (XBridge BEH C18 2.5 μm 4.6×75 mm in the case of JBSNF-000265) with the following equipment installed.
The mobile phase A was 0.1% formic acid in water, and the mobile phase B was 95% acetonitrile in water (0.1% formic acid), delivered at 0.4 mL/min.
Sample Preparation: The desired serial concentrations of working solutions were achieved by diluting stock solution of analyte with 50% acetonitrile in water solution. 5 μL of working solutions (1, 2, 3, 5, 10, 50, 100, 500, 1000 ng/ml) were added to 5 μL of the blank C57B16/N mouse plasma to achieve calibration standards of 1˜1000 ng/ml (1, 2, 3, 5, 10, 50, 100, 500, 1000 ng/ml) in a total volume of 10 μL. Four quality control samples at 3 ng/mL, 5 ng/mL, 100 ng/mL, and 800 ng/mL for plasma were prepared independently of those used for the calibration curves. These QC samples were prepared on the day of analysis in the same way as calibration standards.
10 μL of standards, 10 μL of QC samples and 10 μL of unknown samples (5 μL of plasma with 5 μL of blank solution) were added to 100 μL of acetonitrile (containing D4-1-MNA 50 ng/mL) for precipitating protein respectively. Then the samples were vortexed for 30 s. After centrifugation at 4 degree Celsius, 4,000 rpm for 15 min, the supernatant was diluted 3 times with water. 10 μL of diluted supernatant (20 μL in the case of JBSNF-000265) was injected into the LC/MS/MS system for quantitative analysis.

For another series, the system named is 1-MNA. The series can be described thus: 1-MNA plasma PK parameters in mouse after dosing with compound. The class given is in vivo. Conditions: plasma 1-MNA, female C57B16/N. The procedure:
as §1, §2
Sample Preparation: 1-Methylnicotinamide (1-MNA): The desired serial concentrations of working solutions were achieved by diluting stock solution of analyte with 50% acetonitrile in water solution. 5 μL of working solutions (1, 2, 3, 5, 10, 50, 100, 500, 1000 ng/mL) were added to 5 μL of water to achieve calibration standards of 1˜1000 ng/ml (1, 2, 3, 5, 10, 50, 100, 500, 1000 ng/ml) in a total volume of 10 μL. Four quality control samples at 3 ng/ml, 5 ng/mL, 100 ng/mL, and 800 ng/ml for water were prepared independently of those used for the calibration curves. These QC samples were prepared on the day of analysis in the same way as calibration standards.
10 μL of standards, 10 μL of QC samples and 10 μL of unknown samples (5 μL of plasma with 5 μL of blank solution) were added to 100 μL of acetonitrile (containing D4-1-MNA 100 ng/mL) for precipitating protein respectively. Then the samples were vortexed for 30 s. After centrifugation at 4 degree Celsius, 4000 rpm for 15 min, the supernatant was diluted 3 times with water. 5 μL of diluted supernatant was injected into the LC/MS/MS system for quantitative analysis.

Where [2] appears, read: mouse, plasma, 1 mg/kg (Table 5B, title: IV Dosage).
[3] abbreviates: mouse, plasma, 10 mg/kg (Table 5B, title: IV Dosage).
The mark [4] stands for this setting: mouse, plasma, 50 mg/kg (Table 5B, title: IV Dosage).

For the compound `CNc1cc2ccncc2cn1`, on recombinant human NNMT, the “activity in the enzyme assay (in words)” value is recorded as “significantly less active”.
Still for that read-out and setting: the result for `CNc1cc2cc[nH]c(=O)c2cn1` reads “substrate (not inhibitor)”.
Turning to `CNc1cc2ccnc(N)c2cn1` [Compound 1], the “Predicted hepatic CL” value in the series “in vitro” (human, 2 uM) was under 5.12 mL/min/kg; in the series “in vitro” (male, mouse, 2 uM), 50.12 mL/min/kg. Moreover, the CLint scaled at 2 uM was under 6.79 mL/min/kg in the series “in vitro” (human, microsomes) and 113 mL/min/kg in “in vitro” (male, mouse, microsomes). For the same compound, the half-life at 2 uM in the series “in vitro” (human, microsomes) is over 256 min; in the series “in vitro” (male, mouse, microsomes), 53.6 min. For the same compound, the microsomal CLint at 2 uM in “in vitro” (human, microsomes) is under 5.42 µL/min/mg; in “in vitro” (male, mouse, microsomes), 25.9 µL/min/mg. In addition, the “Remaining (%) at 60 minutes” value was 86.23% in “in vitro” (human, microsomes, 1 h, 2 uM) and 46.35% in “in vitro” (male, mouse, microsomes, 1 h, 2 uM). The “% Q (mice): percent of compound remaining after 60 minutes of exposure to liver microsomes” value in the series “in vitro” (male, C57B16/N, mouse, microsomes, 1 h, 2 uM) is 46.35%. Besides, the “% Q (human): percent of compound remaining after 60 minutes of exposure to liver microsomes” value in “in vitro” (microsomes, 1 h, 2 uM) worked out at 86.23%. Further, the “AUC% Extrap—obs” value in series [1] (3 mg/kg IV) is listed as 0.666%. The compound further displayed an AUClast/D in series [1] (3 mg/kg IV) of 97 ng·h/mL per mg/kg. Besides, in series [1] (3 mg/kg IV), the Cl_obs is 173 mL/min/kg. The F in series [1] (10 mg/kg) came out at 10.3%; in series [1] (50 mg/kg), 32.4%. The AUC(0-t) stood at 97 ng·h/mL in series [1] (setting [2]); 290 ng·h/mL in series [1] (mouse, plasma, 3 mg/kg IV); 96.4 ng·h/mL in series [1] (setting [3]); 1540 ng·h/mL in series [1] (setting [4]). Further, the Cmax in series [1] (setting [2]) stood at 3.66 ng/mL; in series [1] (setting [3]) it was 145 ng/mL; in series [1] (setting [4]), 1350 ng/mL. Besides, the half-life in series [1] (setting [2]) was 255 min; in series [1] (mouse, plasma, 3 mg/kg IV) it was 25.5 min; in series [1] (setting [3]), 143 min; in series [1] (setting [4]), 473 min. The compound further showed an AUC(0-inf) in series [1] (mouse, plasma, 3 mg/kg IV) of 292 ng·h/mL. This compound returned a C0 in series [1] (mouse, plasma, 3 mg/kg IV) of 864 ng/mL. In addition, the MRT inf in series [1] (mouse, plasma, 3 mg/kg IV, read-out: MRTInf—obs) was determined as 20.8 min. In addition, the Tmax in series [1] (mouse, plasma, 10 mg/kg) stood at 15 min; in series [1] (mouse, plasma, 50 mg/kg), 20 min. In addition, the entries for the “AUClast of 1-MNA” value in the series with 1-MNA (3 mg/kg IV), in the series with 1-MNA (10 mg/kg PO) and with 1-MNA (50 mg/kg PO) were 1463 ng·h/mL, 934 ng·h/mL and 814 ng·h/mL, respectively.
